Assay results: US8568699B2, “Soft anticholinergic zwitterions” (priority 2005, dated 2013)
Where a name gives a salt, the structure may show the parent alone. Read-outs that look alike come from different tables or passages of the source.

Key:
[1] = biological target: T1, cloned human muscarinic receptor subtype M3 (Homo sapiens, UniProt P20309); assay: Receptor binding, N-[3H]-methyl-scopolamine, M3; conditions: for M3 Hill slope: numbers in parentheses
T1 construct: purchased Applied Cell Science Inc. (Rockville, Md.)
T1 sequence (P20309 whole entry): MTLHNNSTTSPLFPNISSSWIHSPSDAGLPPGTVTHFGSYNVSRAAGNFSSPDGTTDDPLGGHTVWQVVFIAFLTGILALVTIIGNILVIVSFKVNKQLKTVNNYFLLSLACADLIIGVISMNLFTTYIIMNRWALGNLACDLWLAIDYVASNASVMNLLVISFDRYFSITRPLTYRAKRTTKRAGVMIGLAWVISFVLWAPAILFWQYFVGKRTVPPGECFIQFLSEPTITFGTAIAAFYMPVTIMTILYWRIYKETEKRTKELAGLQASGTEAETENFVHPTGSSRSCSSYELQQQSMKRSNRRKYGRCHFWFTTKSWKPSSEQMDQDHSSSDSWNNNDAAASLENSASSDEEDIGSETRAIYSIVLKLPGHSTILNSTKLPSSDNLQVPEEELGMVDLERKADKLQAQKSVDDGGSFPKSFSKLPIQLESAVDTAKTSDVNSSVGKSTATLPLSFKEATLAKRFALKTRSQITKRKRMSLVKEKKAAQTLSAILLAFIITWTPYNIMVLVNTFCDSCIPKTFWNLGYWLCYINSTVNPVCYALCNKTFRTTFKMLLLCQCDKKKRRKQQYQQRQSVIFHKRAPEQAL

[2] = biological target: T2, cloned human muscarinic receptor subtype M4 (Homo sapiens, UniProt P08173); assay: Receptor binding, N-[3H]-methyl-scopolamine, M4; conditions: numbers in parentheses
T2 construct: purchased Applied Cell Science Inc. (Rockville, Md.)
T2 sequence (P08173 1-479): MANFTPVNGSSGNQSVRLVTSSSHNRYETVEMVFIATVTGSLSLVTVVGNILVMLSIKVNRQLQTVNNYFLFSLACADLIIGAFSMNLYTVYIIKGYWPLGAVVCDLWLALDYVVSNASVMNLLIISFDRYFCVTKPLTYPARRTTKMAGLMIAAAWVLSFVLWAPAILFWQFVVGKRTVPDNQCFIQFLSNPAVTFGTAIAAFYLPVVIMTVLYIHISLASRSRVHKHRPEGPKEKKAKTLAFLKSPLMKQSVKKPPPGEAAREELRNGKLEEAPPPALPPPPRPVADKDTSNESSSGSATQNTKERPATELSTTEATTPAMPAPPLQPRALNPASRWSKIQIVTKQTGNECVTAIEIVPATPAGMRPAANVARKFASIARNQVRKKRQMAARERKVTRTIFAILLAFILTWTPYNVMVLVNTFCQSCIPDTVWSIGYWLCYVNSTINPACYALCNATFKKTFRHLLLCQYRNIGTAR

[3] = biological target: T3, cloned human muscarinic receptor subtype M1 (Homo sapiens, UniProt P11229); assay: Receptor binding, N-[3H]-methyl-scopolamine, M1; conditions: numbers in parentheses
T3 sequence (P11229 1-460): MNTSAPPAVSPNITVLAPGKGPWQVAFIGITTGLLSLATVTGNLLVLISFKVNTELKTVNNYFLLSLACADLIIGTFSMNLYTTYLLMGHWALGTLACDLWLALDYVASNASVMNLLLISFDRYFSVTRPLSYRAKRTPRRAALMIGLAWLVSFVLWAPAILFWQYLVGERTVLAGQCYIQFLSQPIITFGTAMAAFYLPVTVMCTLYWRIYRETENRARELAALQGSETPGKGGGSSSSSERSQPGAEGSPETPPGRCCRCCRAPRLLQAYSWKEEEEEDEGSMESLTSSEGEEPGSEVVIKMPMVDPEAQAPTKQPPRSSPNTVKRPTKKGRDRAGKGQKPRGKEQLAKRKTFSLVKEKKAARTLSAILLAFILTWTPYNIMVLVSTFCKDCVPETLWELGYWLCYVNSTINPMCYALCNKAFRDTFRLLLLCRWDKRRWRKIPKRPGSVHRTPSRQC

[4] = biological target: cloned human muscarinic receptors (M1-M4 subtypes); assay: Receptor binding, values stated across subtypes M1-M4
[5] = biological target: T4, cloned human muscarinic receptor subtype M2 (Homo sapiens, UniProt P08172); assay: Receptor binding, N-[3H]-methyl-scopolamine, M2
T4 sequence (P08172 1-466): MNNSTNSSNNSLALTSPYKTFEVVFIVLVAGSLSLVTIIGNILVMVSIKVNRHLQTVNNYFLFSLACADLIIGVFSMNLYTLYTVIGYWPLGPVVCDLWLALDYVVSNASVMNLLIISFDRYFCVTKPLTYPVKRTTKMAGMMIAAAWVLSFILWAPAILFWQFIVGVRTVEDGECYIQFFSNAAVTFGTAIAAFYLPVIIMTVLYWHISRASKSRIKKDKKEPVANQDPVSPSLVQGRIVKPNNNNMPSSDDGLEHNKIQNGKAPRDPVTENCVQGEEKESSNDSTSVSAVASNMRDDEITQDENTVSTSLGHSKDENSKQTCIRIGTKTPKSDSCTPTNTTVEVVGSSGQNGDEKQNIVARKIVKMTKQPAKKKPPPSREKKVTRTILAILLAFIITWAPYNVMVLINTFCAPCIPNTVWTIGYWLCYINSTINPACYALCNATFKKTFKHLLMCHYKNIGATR

[6] = tested on: electrically stimulated guinea pig tracheal strips; format: cell-based
[7] = tested on: muscarinic M3 cholinoceptors (guinea pig tracheal rings); format: cell-based
[8] = Table 6, numbers in parentheses
[9] = electrically stimulated guinea pig tracheal strips
[10] = time from washout to 20% recovery of cholinergic responses

Structure (SMILES): CCOC(=O)C[N+]1(C)CC[C@H](OC(=O)[C@](O)(c2ccccc2)C2CCCC2)C1 (mixture of isomers) [Compound (j), (2R,3′S) 3(2-Cyclopentyl-2-phenyl-2-hydroxyacetoxy)-1-(ethoxycarbonylmethyl)-1-methylpyrrolidinium bromide]
- M3/M2 muscarinic-receptor subtype-selectivity ([1]; M3 affinity relative to M2 affinity): 2.8±0.8 times
- Selectivity M3/M2 (M3/M2 affinity ratio) ([1]; Table 6): 2.8 ± 0.8 times
- M3 Hill slope ([1]; Table 6): (1.33 ± 0.16)
- M4 Hill slope ([2]; Table 6): (1.15 ± 0.03)
- M1 Hill slope ([3]; Table 6): (1.21 ± 0.33)
- pKi (range over M1-M4) [4]: 8.2-8.7
- M2 Hill slope [5, 8]: (1.27 ± 0.11)

Structure (SMILES): C[N+]1(C)CCC(OC(=O)C(O)(c2ccccc2)C2CCCC2)C1 (mixture of isomers) [glycopyrrolate, glycopyrronium bromide]
- M3 Hill slope ([1]; Table 1): (1.14 ± 0.25)
- M3 Hill slope ([1]; Table 6): (1.14 ± 0.25)
- M4 Hill slope ([2]; Table 1): (1.02 ± 0.01)
- M4 Hill slope ([2]; Table 6): (1.02 ± 0.01)
- M1 Hill slope ([3]; Table 1): (1.37 ± 0.20)
- M1 Hill slope ([3]; Table 6): (1.37 ± 0.20)
- pKi (range over M1-M4) [4]: 8.7-9.9
- M2 Hill slope ([5]; Table 1, numbers in parentheses): (0.99 ± 0.11)
- M2 Hill slope [5, 8]: (0.99 ± 0.11)

Structure (SMILES): CCOC(=O)C[N+]1(C)[C@@H]2C[C@@H](OC(=O)C(O)(c3cccs3)c3cccs3)C[C@H]1[C@@H]1O[C@@H]12 (stereo partly drawn) [Compound (w), 6β,7β-epoxy-3β-hydroxy-8-ethoxycarbonylmethyl-8-methyl-1αH,5αH-tropanium bromide, di-2-thienylglycolate]
- t1/5 onset [6, 9]: 0.6 min
- t1/5 offset [6, 10]: 60 min
- pA2 ([7]; antagonism against carbachol, isolated guinea pig tracheal rings, four animals): 8.82

Structure (SMILES): C[N+]1(C)[C@@H]2C[C@@H](OC(=O)[C@H](CO)c3ccccc3)C[C@H]1[C@@H]1O[C@@H]12 [scopolamine methyl bromide, scopolamine methylbromide]
- M2 Hill slope [5]: (1.02 ± 0.02)

Structure (SMILES): C[N+]1(CC(=O)[O-])[C@@H]2C[C@@H](OC(=O)C(O)(c3cccs3)c3cccs3)C[C@H]1[C@@H]1O[C@@H]12 (stereo partly drawn) [Compound (aa), 6β,7β-epoxy-3β-hydroxy-8-carboxymethyl-8-methyl-1αH,5αH-tropanium, di-2-thienylglycolate inner salt]
- t1/5 onset [6, 9]: 0.9 min
- t1/5 offset [6, 10]: 27 min

Structure (SMILES): CN1[C@@H]2CC[C@H]1C[C@@H](OC(=O)C(CO)c1ccccc1)C2 (stereo partly shown) [Atropine]
- t1/5 offset [6]: 10 min
- t1/5 onset [6]: 2.5 min

Structure (SMILES): C[N+]1(C)[C@@H]2C[C@@H](OC(=O)C(O)(c3cccs3)c3cccs3)C[C@H]1[C@@H]1O[C@@H]12 [Tiotropium]
- t1/5 offset [6]: >360 min
- t1/5 onset [6]: 8.0 min

Structure (SMILES): CC(C)[N+]1(C)[C@@H]2CC[C@H]1CC(OC(=O)C(CO)c1ccccc1)C2.[Br-] (stereo partly shown) [Ipratropium Br, ipratropium bromide]
- t1/5 onset [6]: 3.0 min
- pA2 [7]: 9.18
